{"source": "patent US20190350939A1", "about": "“CANCER TREATMENT METHOD USING Ni-SOD MIMIC COMPOUND” (NATIONAL CHIAO TUNG UNIVERSITY, priority 2018, published 2019)", "data": [{"tested_on": "MiaPaCa-2 cells", "assay": "In vivo study, MiaPaCa-2 subcutaneous tumor in nude mice", "settings": "0.27 mg/kg tail vein injection, 18th day; start 125 mm^3; PBS group 600 mm^3", "units": {"tumor size": "mm^3"}, "description": "In an embodiment, mice (BALB/cAnN.Cg-Foxn1nu/CrlNarl mice) are reared until 6 weeks of age, and 1×10^6 of MiaPaCa-2 cells are subcutaneously injected into the right rear leg of the mice. […] The experiment is performed until the 18th day, and the tumor size is measured every 2 days. The measurement formula of the tumor size is as follows: ½ (L×W^2), wherein L represents the longest diameter of the tumor; W represents the shortest diameter of the tumor.", "values": [{"smiles": "CC[C@@]1(O)C(=O)OCc2c1cc1n(c2=O)Cc2cc3ccccc3nc2-1", "note": "[CPT]", "tumor size": 52}, {"smiles": "COc1cccc2c1C(=O)c1c(O)c3c(c(O)c1C2=O)C[C@@](O)(C(=O)CO)C[C@@H]3O[C@H]1C[C@H](N)[C@H](O)[C@H](C)O1", "note": "[Doxorubicin]", "tumor size": 64}, {"smiles": "Nc1ccn([C@@H]2O[C@H](CO)[C@@H](O)C2(F)F)c(=O)n1", "note": "[Gemzar]", "tumor size": 30}, {"smiles": "CC(=O)O[C@@]12CO[C@@H]1C[C@H](O)[C@@]1(C)C(=O)[C@H](O)C3=C(C)[C@@H](OC(=O)[C@H](O)[C@@H](NC(=O)OC(C)(C)C)c4ccccc4)C[C@@](O)([C@@H](OC(=O)c4ccccc4)[C@H]21)C3(C)C", "note": "[Taxatere]", "tumor size": 68}]}]}
